Assays:
[1] = target: T1, chitin synthase 2 of Saccharomyces cerevisiae ECY38-38A(pAS6) (Saccharomyces cerevisiae, UniProt P14180); experiment: In vitro enzyme assay for chitin synthase 2 of Saccharomyces cerevisiae (enzyme 2); format: biochemical; details: relative to polyoxin D (50% inhibitory activity = value 5)
T1 construct: made in house; host or cells: Saccharomyces cerevisiae ECY38-38A (chs1-23 chs2::LEU2 cal1/csd2) carrying plasmid pAS6, grown in galactose medium; 130,000 x g membrane pellet
Method in brief: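 Values are scores: 5 means 50% inhibition at the same concentration as polyoxin D, lower scores 2- to 16-fold higher concentration, higher scores ½ to ⅛. Radiolabel from 1.1 mM UDP-[14C]-GlcNAc was incorporated into TCA-insoluble chitin over 90 min at 30 °C (pH 7.5 Tris, 2 mM Co2+). The enzyme was a trypsin-activated membrane fraction from CHS2-only S. cerevisiae ECY38-38A(pAS6).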

Candida krusei ATCC 6258 = experiment: In vitro antifungal activity (MIC), NCCLS method; format: cell-based; details: 48 hours
Method in brief: (§1)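 Test samples were serially diluted two-fold, then inoculated with fungus to a final cell density of 5×10^2 to 2.5×10^3 cell/mL, following the NCCLS method. Plates were cultured for 48 hours and the minimum inhibitory concentration recorded.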

[2] = tested on: Candida lusitaniae ATCC 42720; experiment: In vitro antifungal activity (MIC), NCCLS method; format: cell-based; details: 48 hours
Method in brief: as §1

[3] = tested on: Aspergillus terreus ATCC 46941; experiment: In vitro antifungal activity (MIC), NCCLS method; format: cell-based; details: 48 hours
Method in brief: (§2)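 ATCC reference strains tested by NCCLS MIC method. Final inoculum 5×10^2 to 2.5×10^3 cell/mL over a two-fold dilution series; 48 h incubation.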

[4] = tested on: Candida parapsilosis ATCC 34136; experiment: In vitro antifungal activity (MIC), NCCLS method; format: cell-based; details: Candida parapsilosis ATCC 34136; 48 hours
Method in brief: as §1

[5] = tested on: Candida albicans A207 (clinical isolate); experiment: In vitro antifungal activity (MIC), NCCLS method; format: cell-based; details: 48 hours
Method in brief: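 According to NCCLS guidance, each compound is diluted two-fold and challenged with a fungal inoculum of 5×10^2 to 2.5×10^3 cell/mL (final). Incubation lasts 48 hours.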

[6] = tested on: Candida albicans ATCC 10231; experiment: In vitro antifungal activity (MIC), NCCLS method; format: cell-based; details: 48 hours
Method in brief: as §1

[7] = tested on: Cryptococcus neoformans ATCC 36556; experiment: In vitro antifungal activity (MIC), NCCLS method; format: cell-based; details: RPMI 1640 medium, 72 hours
Method in brief: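 Broth microdilution per NCCLS: two-fold serial dilutions of test compound inoculated with fungal suspension at a final 5×10^2 to 2.5×10^3 cell/mL. Strains other than Cryptococcus neoformans were incubated 48 hours before MIC reading.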

[8] = tested on: Candida tropicalis ATCC 13803; experiment: In vitro antifungal activity (MIC), NCCLS method; format: cell-based; details: 48 hours
Method in brief: as §1

[9] = tested on: Mucor ramosissimus ATCC 90286; experiment: In vitro antifungal activity (MIC), NCCLS method; format: cell-based; details: 48 hours
Method in brief: as §1

[10] = tested on: Aspergillus flavus ATCC 64025; experiment: In vitro antifungal activity (MIC), NCCLS method; format: cell-based; details: 48 hours
Method in brief: as §2

[11] = tested on: Candida glabrata ATCC 48435; experiment: In vitro antifungal activity (MIC), NCCLS method; format: cell-based; details: Candida glabrata ATCC 48435; 48 hours
Method in brief: as §1

[12] = tested on: Aspergillus fumigatus ATCC 16424; experiment: In vitro antifungal activity (MIC), NCCLS method; format: cell-based; details: 48 hours
Method in brief: as §2

[13] = target: T2, chitin synthase 1 of Candida albicans chs2 Δ chs 3 Δ (Candida albicans, UniProt P23316); experiment: In vitro enzyme assay for chitin synthase 1 of Candida albicans (enzyme 1); format: biochemical; details: relative to polyoxin D (50% inhibitory activity = value 5)
T2 construct: Crude enzyme was prepared using the Candida albicans chs2 Δ chs 3 Δ mutant; endogenous in cells; host or cells: Candida albicans chs2Δ/chs2Δ chs3Δ/chs3Δ mutant; 130,000 x g membrane pellet
Method in brief: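 Trypsin-activated crude membrane chitin synthase 1 from C. albicans chs2Δ chs3Δ was incubated 90 min at 30 °C with 1.1 mM UDP-[14C]GlcNAc and 2 mM cobalt acetate in Tris-HCl pH 7.5. Filtered TCA precipitate was counted by scintillation; values are scores 1–8 against polyoxin D (5 = same concentration).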

T2 sequence (P23316 whole entry, stated change not applied): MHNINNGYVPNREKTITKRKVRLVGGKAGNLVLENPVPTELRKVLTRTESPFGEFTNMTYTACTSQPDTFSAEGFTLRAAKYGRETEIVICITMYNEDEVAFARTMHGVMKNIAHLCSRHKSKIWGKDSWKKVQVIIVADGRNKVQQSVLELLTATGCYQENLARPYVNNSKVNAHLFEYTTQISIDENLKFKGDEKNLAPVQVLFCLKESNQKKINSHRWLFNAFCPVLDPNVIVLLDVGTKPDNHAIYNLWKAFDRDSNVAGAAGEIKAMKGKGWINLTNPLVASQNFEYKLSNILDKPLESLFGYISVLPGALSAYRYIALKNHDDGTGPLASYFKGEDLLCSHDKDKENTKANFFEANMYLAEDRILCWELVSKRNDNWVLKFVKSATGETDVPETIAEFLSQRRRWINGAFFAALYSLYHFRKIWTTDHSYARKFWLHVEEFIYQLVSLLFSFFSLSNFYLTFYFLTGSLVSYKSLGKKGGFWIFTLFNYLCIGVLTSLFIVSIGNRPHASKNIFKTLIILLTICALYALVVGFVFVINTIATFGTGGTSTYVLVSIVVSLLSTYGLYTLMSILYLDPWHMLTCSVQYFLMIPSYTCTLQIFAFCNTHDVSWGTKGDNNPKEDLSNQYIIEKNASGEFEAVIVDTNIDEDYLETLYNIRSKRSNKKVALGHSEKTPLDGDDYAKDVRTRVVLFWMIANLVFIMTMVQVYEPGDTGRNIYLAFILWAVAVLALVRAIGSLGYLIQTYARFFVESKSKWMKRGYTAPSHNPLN
T1 sequence (P14180 whole entry): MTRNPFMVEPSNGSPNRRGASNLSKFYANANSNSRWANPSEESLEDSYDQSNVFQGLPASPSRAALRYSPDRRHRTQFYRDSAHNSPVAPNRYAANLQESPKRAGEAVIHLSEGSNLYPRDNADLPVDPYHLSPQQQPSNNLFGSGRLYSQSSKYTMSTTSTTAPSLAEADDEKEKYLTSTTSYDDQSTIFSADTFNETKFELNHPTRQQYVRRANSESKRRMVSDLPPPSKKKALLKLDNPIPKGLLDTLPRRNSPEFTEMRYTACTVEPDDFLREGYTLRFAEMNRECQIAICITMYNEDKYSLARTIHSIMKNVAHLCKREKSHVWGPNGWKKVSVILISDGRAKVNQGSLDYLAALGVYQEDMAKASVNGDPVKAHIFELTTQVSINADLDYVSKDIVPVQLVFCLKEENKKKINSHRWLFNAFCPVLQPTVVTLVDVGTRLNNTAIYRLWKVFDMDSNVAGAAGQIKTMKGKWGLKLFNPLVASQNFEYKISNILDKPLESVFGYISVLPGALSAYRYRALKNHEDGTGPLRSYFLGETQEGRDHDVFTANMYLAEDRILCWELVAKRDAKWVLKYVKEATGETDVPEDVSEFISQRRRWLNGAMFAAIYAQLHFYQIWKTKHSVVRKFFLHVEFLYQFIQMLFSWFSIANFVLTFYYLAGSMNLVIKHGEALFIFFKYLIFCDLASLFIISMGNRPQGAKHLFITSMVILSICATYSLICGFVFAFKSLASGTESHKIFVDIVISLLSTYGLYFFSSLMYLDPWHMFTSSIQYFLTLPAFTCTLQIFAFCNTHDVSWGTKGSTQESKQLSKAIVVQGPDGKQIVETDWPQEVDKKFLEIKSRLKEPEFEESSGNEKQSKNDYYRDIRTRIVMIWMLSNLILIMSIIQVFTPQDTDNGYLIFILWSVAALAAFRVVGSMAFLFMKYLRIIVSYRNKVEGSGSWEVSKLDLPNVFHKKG

| Substance | Relative activity Enzyme 2 [1] | MIC (minimum inhibitory concentration) (Candida krusei ATCC 6258) | MIC (minimum inhibitory concentration) [2] | MIC (minimum inhibitory concentration) [3] | MIC (minimum inhibitory concentration) [4] | MIC (minimum inhibitory concentration) [5] | MIC (minimum inhibitory concentration) [6] | MIC (minimum inhibitory concentration) [7] | MIC (minimum inhibitory concentration) [8] | MIC (minimum inhibitory concentration) [9] | MIC (minimum inhibitory concentration) [10] | MIC (minimum inhibitory concentration) [11] | MIC (minimum inhibitory concentration) [12] | Relative activity Enzyme 1 [13] |
| --- | --- | --- | --- | --- | --- | --- | --- | --- | --- | --- | --- | --- | --- | --- |
| 13-(4-tert-Butylbenzyl)-9-O-(6-chlorohexyl)berberrubine iodide [Compound No. 12] | 5 (A compound having the same inhibitory activity as that of polyoxin D at the same concentration was given the value 5) | 1 µg/mL | 2 µg/mL | 8 µg/mL | 2 µg/mL | 0.5 µg/mL | 0.5 µg/mL | 1 µg/mL | 0.5 µg/mL | 4 µg/mL | 8 µg/mL | 2 µg/mL | 2 µg/mL | 2 (Compounds having the inhibitory activity at 2-fold, 4-fold, 8-fold and 16-fold higher concentrations than that of polyoxin D were given the values of 4, 3, 2 and 1, respectively) |
| 13-(4-tert-Butylbenzyl)-9-O-allylberberrubine chloride [Compound No. 45] | 6 (compounds having the inhibitory activity at ½, ¼ and ⅛ lower concentrations than that of polyoxin D were given the values of 6, 7 and 8, respectively) | 2 µg/mL | 2 µg/mL | 8 µg/mL | 4 µg/mL | 1 µg/mL | 1 µg/mL | 2 µg/mL | 1 µg/mL | 4 µg/mL | 8 µg/mL | 8 µg/mL | 8 µg/mL | 2 (Compounds having the inhibitory activity at 2-fold, 4-fold, 8-fold and 16-fold higher concentrations than that of polyoxin D were given the values of 4, 3, 2 and 1, respectively) |
| 13-(4-tert-Butylbenzyl)-9-O-allylberberrubine iodide [Compound No. 13] | 5 (A compound having the same inhibitory activity as that of polyoxin D at the same concentration was given the value 5) | 2 µg/mL | 2 µg/mL | 8 µg/mL | 4 µg/mL | 1 µg/mL | 1 µg/mL | 2 µg/mL | 1 µg/mL | 4 µg/mL | 8 µg/mL | 8 µg/mL | 8 µg/mL | 2 (Compounds having the inhibitory activity at 2-fold, 4-fold, 8-fold and 16-fold higher concentrations than that of polyoxin D were given the values of 4, 3, 2 and 1, respectively) |
| 13-(4-tert-Butylbenzyl)-9-O-crotylberberrubine bromide [Compound No. 14] | 5 (A compound having the same inhibitory activity as that of polyoxin D at the same concentration was given the value 5) | 1 µg/mL | 1 µg/mL | 4 µg/mL | 4 µg/mL | 0.5 µg/mL | 0.5 µg/mL | 1 µg/mL | 0.5 µg/mL | 4 µg/mL | 8 µg/mL | 4 µg/mL | 2 µg/mL | 2 (Compounds having the inhibitory activity at 2-fold, 4-fold, 8-fold and 16-fold higher concentrations than that of polyoxin D were given the values of 4, 3, 2 and 1, respectively) |
| 13-(4-tert-Butylbenzyl)-9-O-crotylberberrubine chloride [Compound No. 46] | 6 (compounds having the inhibitory activity at ½, ¼ and ⅛ lower concentrations than that of polyoxin D were given the values of 6, 7 and 8, respectively) | 1 µg/mL | 1 µg/mL | 4 µg/mL | 4 µg/mL | 0.5 µg/mL | 0.5 µg/mL | 1 µg/mL | 0.5 µg/mL | 4 µg/mL | 8 µg/mL | 4 µg/mL | 2 µg/mL | 2 (Compounds having the inhibitory activity at 2-fold, 4-fold, 8-fold and 16-fold higher concentrations than that of polyoxin D were given the values of 4, 3, 2 and 1, respectively) |
| 13-(4-tert-Butylbenzyl)-9-O-hexylberberrubine chloride [Compound No. 41] | 6 (compounds having the inhibitory activity at ½, ¼ and ⅛ lower concentrations than that of polyoxin D were given the values of 6, 7 and 8, respectively) | 1 µg/mL | 0.5 µg/mL | 8 µg/mL | 2 µg/mL | 0.25 µg/mL | 0.25 µg/mL | 0.5 µg/mL | 0.125 µg/mL | 4 µg/mL | 8 µg/mL | 2 µg/mL | 2 µg/mL | 4 (Compounds having the inhibitory activity at 2-fold, 4-fold, 8-fold and 16-fold higher concentrations than that of polyoxin D were given the values of 4, 3, 2 and 1, respectively) |
| 13-(4-tert-Butylbenzyl)-9-O-hexylberberrubine iodide [Compound No. 9] | 6 (compounds having the inhibitory activity at ½, ¼ and ⅛ lower concentrations than that of polyoxin D were given the values of 6, 7 and 8, respectively) | 1 µg/mL | 1 µg/mL | 8 µg/mL | 2 µg/mL | 0.25 µg/mL | 0.25 µg/mL | 1 µg/mL | 0.125 µg/mL | 4 µg/mL | 8 µg/mL | 2 µg/mL | 2 µg/mL | 3 (Compounds having the inhibitory activity at 2-fold, 4-fold, 8-fold and 16-fold higher concentrations than that of polyoxin D were given the values of 4, 3, 2 and 1, respectively) |
